Values joined by “and” are separate entries in the source; they are usually repeats but may differ in a detail not shown here. Equal values may be shown once. Read-outs that look alike come from different tables or passages of the source.
Legend:
SARS-CoV-2 NSP3 Mac1 [1] = experiment: Overall hit call (binding in crystallographic soaking or the HTRF-based binding assay)
From the text: Supplement pnas.2212931120.sd01.xlsx, sheet "Compound Summary" | column: HIT*

SARS-CoV-2 NSP3 Mac1 [2] = biological target: T1, SARS-CoV-2 NSP3 Mac1 (Severe acute respiratory syndrome coronavirus 2, UniProt P0DTD1); assay type: binding; conditions: for Refined occupancy: ligand occupancy after refinement (phenix.refine)
SARS-CoV-2 NSP3 Mac1 [3] = biological target: T1, SARS-CoV-2 NSP3 Mac1; experiment: biochemical; assay type: binding; conditions: for IC50: read-out: IC50
SARS-CoV-2 NSP3 Mac1 [4] = biological target: T1, SARS-CoV-2 NSP3 Mac1; assay type: binding; parameters: contains a conserved macrodomain enzyme (Mac1)
How it was run: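 ΔTma values are thermal shifts relative to a co-located DMSO-only control, read with 5 µM Fluorescent Yellow dye. Each compound was tested in triplicate over seven concentrations (two-fold steps, top 1,000 or 100 μM). Spearman correlation of concentration versus ΔTma tested whether the shift was dose-responsive.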

[5] = PanDDA event map, 1 minus background density correction, crystal soaking of Mac1

Question: For `COC(=O)CC1CN(c2ncnc3[nH]c4cc(F)ccc4c23)CCO1` (centres unmarked) [LL114_0040], which “HIT*” value (SARS-CoV-2 NSP3 Mac1 [1]) is on record?
Answer: Y

Question: What about the 1-BDC (SARS-CoV-2 NSP3 Mac1 [2]; PanDDA 1-BDC of the event, compound stock 100 mM, Echo dispense volume 80 nl) of the same molecule?
Answer: 0.08

Question: What about the 1-BDC (SARS-CoV-2 NSP3 Mac1 [2]; PanDDA event map 1-BDC, crystal soak, Compound_concentration 100 mM, PanDDA run dmso_34 or nohits_35 per dataset) of the same molecule?
Answer: 0.11

Question: What about the “1-BDC (PanDDA)” value (SARS-CoV-2 NSP3 Mac1 [2]; [5]) of the same molecule?
Answer: 0.08

Question: And the 1-BDC (SARS-CoV-2 NSP3 Mac1 [2]; PanDDA event map, crystal soak, Compound_concentration 100 mM, Echo_dispense_volume 40 nl)?
Answer: 0.08

Question: What about the “PanDDA hit?” value (SARS-CoV-2 NSP3 Mac1 [2]; crystal soak, Compound_concentration 100 mM, Echo dispense 40 nl, PanDDA run dmso_34 or nohits_35 per dataset) of the same molecule?
Answer: TRUE

Question: What about the “PanDDA hit?” value (SARS-CoV-2 NSP3 Mac1 [2]; crystal soak, Compound_concentration 100 mM, Echo_dispense_volume 40 nl, PanDDA run (background map) dmso_34, nohits_35 or nohits_62) of the same molecule?
Answer: TRUE

Question: What about the “PanDDA hit?” value (SARS-CoV-2 NSP3 Mac1 [2]; crystal soak, compound stock 100 mM, Echo dispense volume 80 nl) of the same molecule?
Answer: TRUE

Question: And the “Modeled?” value (SARS-CoV-2 NSP3 Mac1 [2]; ligand modeled, crystal soak, Compound_concentration 100 mM, Echo_dispense_volume 40 nl)?
Answer: TRUE

Question: What about the Refined occupancy (SARS-CoV-2 NSP3 Mac1 [2]; crystal soaking of Mac1) of the same molecule?
Answer: 16

Question: How did the “HIT*” value (SARS-CoV-2 NSP3 Mac1 [1]) turn out when `O=C(O)CC1CC(CNC(=O)c2cncc3sccc23)C1` (centres unmarked) [Z1558] was run?
Answer: Y

Question: `CC(Cc1ccco1)C(=O)N[C@@H](CC(=O)O)c1ccc2c(c1)OCO2` (some centres unmarked) [Z1877] was tested. Which “HIT*” value (SARS-CoV-2 NSP3 Mac1 [1]) did it give?
Answer: Y

Question: With `Cc1oc(CNc2ncnc3[nH]c4ccccc4c23)cc1C(=O)O` [Z3124] as the molecule, how does the “HIT*” value (SARS-CoV-2 NSP3 Mac1 [1]) read?
Answer: Y

Question: How did the “HIT*” value (SARS-CoV-2 NSP3 Mac1 [1]) turn out when `CC(F)(F)c1cncc(C(=O)NC(Cc2cncc(Br)c2)C(=O)O)c1` (centres unmarked) [Z3140] was run?
Answer: Y

Question: `O=C(NS(=O)(=O)Cc1ccc(Br)c(F)c1)c1cnn2ccccc12` [Z3209] was tested. Which “HIT*” value (SARS-CoV-2 NSP3 Mac1 [1]) did it give?
Answer: Y

Question: How did the “HIT*” value (SARS-CoV-2 NSP3 Mac1 [1]) turn out when `O=C1OCCN1C1CCN(c2ncnc3[nH]c4cc(F)ccc4c23)C1` (centres unmarked) [Z5107] was run?
Answer: Y

Question: How did the “HIT*” value (SARS-CoV-2 NSP3 Mac1 [1]) turn out when `O=C(O)Cc1cccc(CNC(=O)c2ncnc3ccsc23)c1` [Z5712] was run?
Answer: Y

Question: With `O=C(O)Cc1ccc(CNC(=O)c2ccnc3ccsc23)cc1` [Z6625] as the molecule, how does the “HIT*” value (SARS-CoV-2 NSP3 Mac1 [1]) read?
Answer: Y

Question: Which “HIT*” value (SARS-CoV-2 NSP3 Mac1 [1]) does the source give for `COc1cncc(C(=O)NCCNC(=O)c2ncccc2O)c1` [Z6634] here?
Answer: Y

Question: How did the “HIT*” value (SARS-CoV-2 NSP3 Mac1 [1]) turn out when `CC(=O)Nc1nc(C)c(S(=O)(=O)Nc2ccc(C)c(C#N)c2)s1` [Z6707] was run?
Answer: Y

Question: `Cc1oc(C(N)=O)cc1S(=O)(=O)Nc1ccc(Br)c(C#N)c1` [Z6708] was tested. Which “HIT*” value (SARS-CoV-2 NSP3 Mac1 [1]) did it give?
Answer: Y

Question: How did the “HIT*” value (SARS-CoV-2 NSP3 Mac1 [1]) turn out when `Cc1oc(C(N)=O)cc1S(=O)(=O)Nc1cnc(Cl)c(C#N)c1` [Z6746] was run?
Answer: Y

Question: Which results are given for `C[C@@H]1CN(c2ncnc3[nH]c4ccccc4c23)C[C@@H](CO)O1` [Z6923]?
Answer: IC50 (SARS-CoV-2 NSP3 Mac1 [3]; HTRF ADPr-peptide displacement from SARS-CoV-2 Mac1): 416 µM and ≤ 90 µM; IC50 (SARS-CoV-2 NSP3 Mac1 [3]; HTRF, several values in a cell are separate determinations): 416 µM; Ki (SARS-CoV-2 NSP3 Mac1 [3]; Ki estimation from HTRF-derived IC50, Cheng-Prusoff, peptide 400nM, Kd 2.68µM, read-out: Ki***): 362 µM; 1-BDC (SARS-CoV-2 NSP3 Mac1 [2]; [5]): 0.1; Modeled? (SARS-CoV-2 NSP3 Mac1 [2]; ligand modeled in structure, crystal soak, Compound_concentration 100 mM): TRUE; Refined occupancy (SARS-CoV-2 NSP3 Mac1 [2]; crystal soaking of Mac1): 20; HIT* (SARS-CoV-2 NSP3 Mac1 [2]; overall hit flag: binding in crystallographic soaking or the HTRF-based binding assay): Y; Spearman est (compound concentration vs apparent Tm) (SARS-CoV-2 NSP3 Mac1 [4]; DSF dose responsiveness, 1 µM nsp3 mac1, adj p given): 0.28; DSF max dTma (SARS-CoV-2 NSP3 Mac1 [4]; maximal thermal upshift vs DMSO control): 0.46 °C

Question: Which “HIT*” value (SARS-CoV-2 NSP3 Mac1 [1]) does the source give for `O=C(O)c1ccc(F)c(CNC(=O)c2ccc3[nH]ccc3c2)c1` [Z7647] here?
Answer: Y

From article PMC9926234, “Iterative computational design and crystallographic screening identifies potent inhibitors targeting the Nsp3 macrodomain of SARS-CoV-2” (Proceedings of the National Academy of Sciences of the …, 2023)
